Test results taken from ChEMBL document CHEMBL5338760, “Ψ and χ Angle Constrains at the C-Terminus Trp Position of the Melanotropin Tetrapeptide Ac-His-d-Phe-Arg-Trp-NH2 Lead to Potent and Selective Agonists at hMC1R and hMC4R” (J Med Chem, 2023).

Experiments:
[1] = target: T1, Melanocyte-stimulating hormone receptor (Homo sapiens, UniProt Q01726); experiment: Displacement of [I125] NDP-alpha-MSH from human MC1R stably overexpressing in HEK293 cells in presence of [I125] labeled NDP-alpha-MSH treated for 40 mins measured by microbeta 2 microplate counter analysis; format: cell-based
Target sequence in this assay (Q01726 whole entry): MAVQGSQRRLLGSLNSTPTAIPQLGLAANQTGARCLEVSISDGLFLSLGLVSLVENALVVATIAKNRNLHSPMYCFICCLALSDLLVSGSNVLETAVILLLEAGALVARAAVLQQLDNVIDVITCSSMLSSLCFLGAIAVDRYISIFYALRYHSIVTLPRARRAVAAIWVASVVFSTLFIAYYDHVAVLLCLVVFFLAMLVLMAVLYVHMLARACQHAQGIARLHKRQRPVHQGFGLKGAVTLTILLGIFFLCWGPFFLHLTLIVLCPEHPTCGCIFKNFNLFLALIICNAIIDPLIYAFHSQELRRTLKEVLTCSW

[2] = target: T1, Melanocyte-stimulating hormone receptor; experiment: Displacement of [I125] NDP-alpha-MSH from human MC1R stably overexpressing in HEK293 cells in presence of [I125] labeled NDP-alpha-MSH treated at 10 uM for 40 mins measured by microbeta 2 microplate counter analysis relative to control; format: cell-based
Target sequence in this assay (Q01726 whole entry, looked up): as the sequence (Q01726 whole entry) above

[3] = target: T1, Melanocyte-stimulating hormone receptor; experiment: Agonist activity at human MC1R stably overexpressing in HEK293 cells assessed as intracellular acumulation of cAMP level incubated for 30 mins measured by microbeta 2 microplate counter analysis; format: functional, cell-based
Target sequence in this assay (Q01726 whole entry): as above

[4] = target: T1, Melanocyte-stimulating hormone receptor; experiment: Agonist activity at human MC1R stably overexpressing in HEK293 cells assessed as intracellular acumulation of cAMP level incubated at 10 uM for 30 mins measured by microbeta 2 microplate counter analysis relative to MT-II; format: functional, cell-based; details: filed as agonist
Target sequence in this assay (Q01726 whole entry, looked up): as the sequence (Q01726 whole entry) above

Melanocortin receptor 3 [5] = target: T2, Melanocortin receptor 3 (Homo sapiens, UniProt P41968); experiment: Displacement of [I125] NDP-alpha-MSH from human MC3R stably overexpressing in HEK293 cells in presence of [I125] labeled NDP-alpha-MSH treated at 10 uM for 40 mins measured by microbeta 2 microplate counter analysis; format: cell-based
Melanocortin receptor 3 [6] = target: T2, Melanocortin receptor 3; experiment: Agonist activity at human MC3R stably overexpressing in HEK293 cells assessed as intracellular acumulation of cAMP level incubated for 30 mins measured by microbeta 2 microplate counter analysis; format: functional, cell-based
Melanocortin receptor 4 [7] = target: T3, Melanocortin receptor 4 (Homo sapiens, UniProt P32245); experiment: Displacement of [I125] NDP-alpha-MSH from human MC4R stably overexpressing in HEK293 cells in presence of [I125] labeled NDP-alpha-MSH treated at 10 uM for 40 mins measured by microbeta 2 microplate counter analysis; format: cell-based
Melanocortin receptor 4 [8] = target: T3, Melanocortin receptor 4; experiment: Agonist activity at human MC4R stably overexpressing in HEK293 cells assessed as intracellular acumulation of cAMP level incubated for 30 mins measured by microbeta 2 microplate counter analysis; format: functional, cell-based
Melanocortin receptor 5 [9] = target: T4, Melanocortin receptor 5 (Homo sapiens, UniProt P33032); experiment: Displacement of [I125] NDP-alpha-MSH from human MC5R stably overexpressing in HEK293 cells in presence of [I125] labeled NDP-alpha-MSH treated for 40 mins measured by microbeta 2 microplate counter analysis; format: cell-based
Melanocortin receptor 5 [10] = target: T4, Melanocortin receptor 5; experiment: Agonist activity at human MC5R stably overexpressing in HEK293 cells assessed as intracellular acumulation of cAMP level incubated for 30 mins measured by microbeta 2 microplate counter analysis; format: functional, cell-based
[11] = target: T1, Melanocyte-stimulating hormone receptor; experiment: Displacement of [I125] NDP-alpha-MSH from human MC1R stably overexpressing in HEK293 cells in presence of [I125] labeled NDP-alpha-MSH treated at 10 uM for 40 mins measured by microbeta 2 microplate counter analysis; format: cell-based
Target sequence in this assay (Q01726 whole entry): as above

Melanocortin receptor 5 [12] = target: T4, Melanocortin receptor 5; experiment: Displacement of [I125] NDP-alpha-MSH from human MC5R stably overexpressing in HEK293 cells in presence of [I125] labeled NDP-alpha-MSH treated at 10 uM for 40 mins measured by microbeta 2 microplate counter analysis; format: cell-based
Melanocortin receptor 3 [13] = target: T2, Melanocortin receptor 3; experiment: Displacement of [I125] NDP-alpha-MSH from human MC3R stably overexpressing in HEK293 cells in presence of [I125] labeled NDP-alpha-MSH treated for 40 mins measured by microbeta 2 microplate counter analysis; format: cell-based
Melanocortin receptor 3 [14] = target: T2, Melanocortin receptor 3; experiment: Displacement of [I125] NDP-alpha-MSH from human MC3R stably overexpressing in HEK293 cells in presence of [I125] labeled NDP-alpha-MSH treated at 10 uM for 40 mins measured by microbeta 2 microplate counter analysis relative to control; format: cell-based; details: filed as agonist
Melanocortin receptor 3 [15] = target: T2, Melanocortin receptor 3; experiment: Agonist activity at human MC3R stably overexpressing in HEK293 cells assessed as intracellular acumulation of cAMP level incubated at 10 uM for 30 mins measured by microbeta 2 microplate counter analysis relative to MT-II; format: functional, cell-based; details: filed as agonist
Melanocortin receptor 4 [16] = target: T3, Melanocortin receptor 4; experiment: Displacement of [I125] NDP-alpha-MSH from human MC4R stably overexpressing in HEK293 cells in presence of [I125] labeled NDP-alpha-MSH treated for 40 mins measured by microbeta 2 microplate counter analysis; format: cell-based
Melanocortin receptor 5 [17] = target: T4, Melanocortin receptor 5; experiment: Displacement of [I125] NDP-alpha-MSH from human MC5R stably overexpressing in HEK293 cells in presence of [I125] labeled NDP-alpha-MSH treated at 10 uM for 40 mins measured by microbeta 2 microplate counter analysis relative to control; format: cell-based
Melanocortin receptor 5 [18] = target: T4, Melanocortin receptor 5; experiment: Agonist activity at human MC5R stably overexpressing in HEK293 cells assessed as intracellular acumulation of cAMP level incubated at 10 uM for 30 mins measured by microbeta 2 microplate counter analysis relative to MT-II; format: functional, cell-based; details: filed as agonist

T4 sequence (P33032 whole entry): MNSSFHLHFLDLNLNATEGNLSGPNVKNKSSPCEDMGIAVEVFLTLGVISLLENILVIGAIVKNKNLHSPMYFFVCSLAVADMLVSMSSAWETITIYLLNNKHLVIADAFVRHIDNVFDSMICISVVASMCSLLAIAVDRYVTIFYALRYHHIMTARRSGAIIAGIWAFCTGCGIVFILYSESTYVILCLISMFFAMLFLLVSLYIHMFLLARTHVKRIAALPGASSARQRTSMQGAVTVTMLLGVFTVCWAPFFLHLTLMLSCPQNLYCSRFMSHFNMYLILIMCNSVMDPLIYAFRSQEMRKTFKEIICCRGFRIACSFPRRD
T2 sequence (P41968 whole entry): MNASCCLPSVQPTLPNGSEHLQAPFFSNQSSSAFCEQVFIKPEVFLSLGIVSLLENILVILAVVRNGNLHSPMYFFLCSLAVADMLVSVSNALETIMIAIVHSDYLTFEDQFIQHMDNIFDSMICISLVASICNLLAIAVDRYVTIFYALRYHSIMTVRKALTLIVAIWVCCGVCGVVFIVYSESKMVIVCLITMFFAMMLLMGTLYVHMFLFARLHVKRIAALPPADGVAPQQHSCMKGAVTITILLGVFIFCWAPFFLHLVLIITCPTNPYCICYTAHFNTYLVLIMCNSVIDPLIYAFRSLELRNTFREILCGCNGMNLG
T3 sequence (P32245 whole entry): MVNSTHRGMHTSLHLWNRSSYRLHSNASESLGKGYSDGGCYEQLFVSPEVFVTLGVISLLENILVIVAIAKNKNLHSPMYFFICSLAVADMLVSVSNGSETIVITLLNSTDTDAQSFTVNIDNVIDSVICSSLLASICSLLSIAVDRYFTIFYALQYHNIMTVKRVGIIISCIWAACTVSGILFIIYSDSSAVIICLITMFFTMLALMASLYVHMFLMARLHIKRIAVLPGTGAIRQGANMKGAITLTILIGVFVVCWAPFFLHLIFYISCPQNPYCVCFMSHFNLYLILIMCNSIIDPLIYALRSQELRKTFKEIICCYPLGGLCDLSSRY

SMILES | IC50 [1] | EC50 ([3]; read-out: EC50) | Emax [4] | IC50 (Melanocortin receptor 3 [5]) | EC50 (Melanocortin receptor 3 [6]; read-out: EC50) | IC50 (Melanocortin receptor 4 [7]) | EC50 (Melanocortin receptor 4 [8]; hek293) | IC50 (Melanocortin receptor 5 [9]) | EC50 (Melanocortin receptor 5 [10]; hek293) | IC50 [11] | EC50 ([3]; hek293) | EC50 (Melanocortin receptor 3 [6]; hek293) | IC50 (Melanocortin receptor 5 [12]) | IC50 (Melanocortin receptor 3 [13]) | EC50 (Melanocortin receptor 4 [8]; read-out: EC50) | further results
CC(=O)N[C@@H](Cc1c[nH]cn1)C(=O)N[C@H](Cc1ccccc1)C(=O)N[C@@H](CCCNC(=N)N)C(=O)N[C@H]1Cn2nncc2CNC1=O | 9.6 nM | 136 nM | 96% | Not Active | > 1000 nM | Not Active | Not Active | > 1000 nM | Not Active | – | – | – | – | – | – | Activity [2]: 21%
CCCC[C@H](NC(=O)[C@@H](Cc1ccccc1)NC(=O)[C@H](Cc1c[nH]cn1)NC(C)=O)C(=O)N[C@H]1Cn2nncc2CNC1=O | – | – | – | Not Active | – | Not Active | Not Active | – | Not Active | Not Active | Not Active | Not Active | Not Active | – | – | –
CC(=O)N[C@@H](Cc1c[nH]cn1)C(=O)N[C@H](Cc1ccccc1)C(=O)N[C@@H](CCCNC(=N)N)C(=O)N[C@H]1Cc2ccccc2CNC1=O | – | – | – | Not Active | – | Not Active | Not Active | – | Not Active | Not Active | Not Active | Not Active | Not Active | – | – | –
CC(=O)N[C@@H](Cc1c[nH]cn1)C(=O)N[C@H](Cc1ccccc1)C(=O)N[C@@H](CCCNC(=N)N)C(=O)N[C@H]1Cc2c([nH]c3ccccc23)CNC1=O | 34 nM | 11.2 nM | 100% | – | 166 nM | – | – | > 1000 nM | – | – | – | – | – | 165 nM | 171 nM | Activity ([2]; filed as agonist): 83%; Activity (Melanocortin receptor 3 [14]): 61%; Emax (Melanocortin receptor 3 [15]): 66%; IC50 (Melanocortin receptor 4 [16]): 166 nM; Activity (Melanocortin receptor 5 [17]): 39%; EC50 (Melanocortin receptor 5 [10]; read-out: EC50): 165 nM; Emax (Melanocortin receptor 5 [18]): 61%
CC(=O)N[C@@H](Cc1cnc[nH]1)C(=O)N[C@H](Cc1ccccc1)C(=O)N[C@@H](CCCNC(=N)N)C(=O)N[C@@H](Cc1c[nH]c2ccccc12)C(N)=O | – | – | 100% | – | – | – | – | – | – | – | – | – | – | – | – | Emax (Melanocortin receptor 3 [15]): 100%; Activity (Melanocortin receptor 5 [17]; filed as agonist): 100%; Emax (Melanocortin receptor 5 [18]): 63%
CCCC[C@H](NC(=O)[C@@H](Cc1ccccc1)NC(=O)[C@H](Cc1c[nH]cn1)NC(C)=O)C(=O)N[C@H]1Cc2c([nH]c3ccccc23)CNC1=O | – | > 1000 nM | – | Not Active | > 1000 nM | Not Active | – | – | Not Active | Not Active | – | – | Not Active | – | > 1000 nM | –
CCCC[C@H](NC(C)=N)C(=O)N[C@@H]1NCCCC[C@@H](C(N)=O)NC(=O)[C@H](Cc2c[nH]c3ccccc23)NC(=O)[C@H](CCCNC(=N)N)NC(=O)[C@H](Cc2ccccc2)NC(=O)[C@H](Cc2cnc[nH]2)NC1=O | 1 nM | 1 nM | – | – | – | – | – | 4 nM | – | – | – | – | – | 2 nM | 2 nM | Activity ([2]; filed as agonist): 100%; Activity (Melanocortin receptor 3 [14]): 100%; Activity (Melanocortin receptor 5 [17]; filed as agonist): 100%; EC50 (Melanocortin receptor 5 [10]; read-out: EC50): 6 nM
CCCC[C@H](NC(=O)[C@@H](Cc1ccccc1)NC(=O)[C@H](Cc1c[nH]cn1)NC(C)=O)C(=O)N[C@H]1Cc2ccccc2CNC1=O | – | – | – | Not Active | – | Not Active | Not Active | – | Not Active | Not Active | Not Active | Not Active | Not Active | – | – | –
CC(=O)N[C@@H](Cc1c[nH]cn1)C(=O)N[C@H](Cc1ccc(C(F)(F)F)cc1)C(=O)N[C@@H](CCCNC(=N)N)C(=O)N[C@H]1Cc2c([nH]c3ccccc23)CNC1=O | 81 nM | 37 nM | 100% | – | – | – | – | 40 nM | Not Active | – | – | Not Active | – | > 1000 nM | 4.1 nM | Activity [2]: 35%; IC50 (Melanocortin receptor 4 [16]): 2.5 nM
